US11330821B2, “Herbicidal compounds” (Syngenta Participations AG, priority 2015, dated 2022)

Experiments:
Type in all cases: in vivo
Settings in all cases: post-emergence spray, evaluated after 13 days
Solanum nigrum (SOLNI) = assay: Post-emergence efficacy, Solanum nigrum
Protocol: (§1) B1 Post-Emergence Efficacy
(§2) Seeds of a variety of test species are shown in standard soil in pots:—Solanum nigrum (SOLNI), Amaranthus retroflexus (AMARE), Setaria faberi (SETFA), Echinochloa crus-galli (ECHCG), Ipomoea hederacea (IPOHE), Lolium perenne (LOLPE). After 8 days cultivation (post-emergence) under controlled conditions in a glasshouse (at 24/16° C., day/night; 14 hours light; 65% humidity), the plants are sprayed with an aqueous spray solution derived from the formulation of the technical active ingredient in acetone/water (50:50) solution containing 0.5% Tween 20 (polyoxyethylene sorbitan monolaurate, CAS RN 9005-64-5). Compounds are applied at 1000 and 62.5 g/ha. The test plants are then grown in a glasshouse under controlled conditions in a glasshouse (at 24/16° C., day/night; 14 hours light; 65% humidity) and watered twice daily. After 13 days, the test is evaluated for the percentage damage caused to the plant. The biological activities are assessed on a five point scale (5=80-100%; 4=60-79%; 3=40-59%; 2=20-39%; 1=0-19%).

Setaria faberi (SETFA) = assay: Post-emergence efficacy, Setaria faberi
Protocol: as §1, §2

Lolium perenne (LOLPE) = assay: Post-emergence efficacy, Lolium perenne
Protocol: as §1, §2

[1] = tested on: Amaranthus retroflexus (AMARE); assay: Post-emergence efficacy, Amaranthus retroflexus
Protocol: as §1, §2

[2] = tested on: Echinochloa crus-galli (ECHCG); assay: Post-emergence efficacy, Echinochloa crus-galli
Protocol: as §1, §2

[3] = tested on: Ipomoea hederacea (IPOHE); assay: Post-emergence efficacy, Ipomoea hederacea
Protocol: as §1, §2

Compound | SOLNI percentage damage caused to the plant (five point scale) (Solanum nigrum (SOLNI); 62.5 g/ha) | SOLNI percentage damage caused to the plant (five point scale) (Solanum nigrum (SOLNI); 1000 g/ha) | SETFA percentage damage caused to the plant (five point scale) (Setaria faberi (SETFA); 62.5 g/ha) | SETFA percentage damage caused to the plant (five point scale) (Setaria faberi (SETFA); 1000 g/ha) | LOLPE percentage damage caused to the plant (five point scale) (Lolium perenne (LOLPE); 62.5 g/ha) | LOLPE percentage damage caused to the plant (five point scale) (Lolium perenne (LOLPE); 1000 g/ha) | AMARE percentage damage caused to the plant (five point scale) ([1]; 62.5 g/ha) | AMARE percentage damage caused to the plant (five point scale) ([1]; 1000 g/ha) | ECHCG percentage damage caused to the plant (five point scale) ([2]; 62.5 g/ha) | ECHCG percentage damage caused to the plant (five point scale) ([2]; 1000 g/ha) | IPOHE percentage damage caused to the plant (five point scale) ([3]; 62.5 g/ha) | IPOHE percentage damage caused to the plant (five point scale) ([3]; 1000 g/ha)
Cc1nn(C)c(=O)c(-c2c(F)ccc(Cl)c2OCc2nccs2)c1O [Compound 1.25] | 5 (5=80-100%) | 5 (5=80-100%) | 5 (5=80-100%) | 5 (5=80-100%) | 4 (4=60-79%) | 5 (5=80-100%) | 5 (5=80-100%) | 5 (5=80-100%) | 4 (4=60-79%) | 5 (5=80-100%) | 5 (5=80-100%) | 5 (5=80-100%)
CC1=NN(C)C(=O)C(c2c(Cl)ccc(Cl)c2OCc2cnc(Cl)s2)C1=O (stereo not drawn) [Compound 1.19, 4-[3,6-dichloro-2-[(2-chlorothiazol-5-yl)methoxy]phenyl]-2,6-dimethyl-pyridazine-3,5-dione] | 5 (5=80-100%) | 5 (5=80-100%) | 5 (5=80-100%) | 5 (5=80-100%) | 5 (5=80-100%) | 5 (5=80-100%) | 5 (5=80-100%) | 5 (5=80-100%) | 3 (3=40-59%) | 5 (5=80-100%) | 5 (5=80-100%) | 5 (5=80-100%)
Cc1nn(C)c(=O)c(-c2c(Cl)ccc(Cl)c2OCc2cccnc2)c1O [Compound 1.02] | 4 (4=60-79%) | 5 (5=80-100%) | 3 (3=40-59%) | 5 (5=80-100%) | 2 (2=20-39%) | 4 (4=60-79%) | 4 (4=60-79%) | 4 (4=60-79%) | 3 (3=40-59%) | 4 (4=60-79%) | 3 (3=40-59%) | 5 (5=80-100%)
Cc1nn(C)c(=O)c(-c2c(Cl)ccc(Cl)c2OCc2cncs2)c1O [Compound 1.06] | 5 (5=80-100%) | 5 (5=80-100%) | 5 (5=80-100%) | 5 (5=80-100%) | 4 (4=60-79%) | 5 (5=80-100%) | 4 (4=60-79%) | 5 (5=80-100%) | 5 (5=80-100%) | 5 (5=80-100%) | 5 (5=80-100%) | 5 (5=80-100%)
Cc1nc(COc2c(Cl)ccc(Cl)c2-c2c(O)c(C)nn(C)c2=O)cs1 [Compound 1.12] | 3 (3=40-59%) | 5 (5=80-100%) | 2 (2=20-39%) | 5 (5=80-100%) | 1 (1=0-19%) | 4 (4=60-79%) | 3 (3=40-59%) | 5 (5=80-100%) | 2 (2=20-39%) | 4 (4=60-79%) | 4 (4=60-79%) | 5 (5=80-100%)
Cc1nc(COc2c(Cl)ccc(F)c2-c2c(O)c(C)nn(C)c2=O)cs1 [Compound 1.33] | 4 (4=60-79%) | 5 (5=80-100%) | 2 (2=20-39%) | 5 (5=80-100%) | 2 (2=20-39%) | 4 (4=60-79%) | 3 (3=40-59%) | 5 (5=80-100%) | 3 (3=40-59%) | 4 (4=60-79%) | 4 (4=60-79%) | 5 (5=80-100%)
Cc1nn(C)c(=O)c(-c2c(Cl)ccc(Cl)c2OCc2ccnc(Cl)c2)c1O [Compound 1.14] | 4 (4=60-79%) | 5 (5=80-100%) | 4 (4=60-79%) | 5 (5=80-100%) | 3 (3=40-59%) | 5 (5=80-100%) | 5 (5=80-100%) | 5 (5=80-100%) | 4 (4=60-79%) | 5 (5=80-100%) | 5 (5=80-100%) | 5 (5=80-100%)
Cc1csc(COc2c(Cl)ccc(F)c2-c2c(O)c(C)nn(C)c2=O)n1 [Compound 1.34] | 5 (5=80-100%) | 5 (5=80-100%) | 4 (4=60-79%) | 5 (5=80-100%) | 3 (3=40-59%) | 4 (4=60-79%) | 4 (4=60-79%) | 5 (5=80-100%) | 4 (4=60-79%) | 5 (5=80-100%) | 5 (5=80-100%) | 5 (5=80-100%)
Cc1nn(C)c(=O)c(-c2c(Cl)ccc(Cl)c2OCc2nccs2)c1O [Compound 1.04] | 5 (5=80-100%) | 5 (5=80-100%) | 5 (5=80-100%) | 5 (5=80-100%) | 3 (3=40-59%) | 5 (5=80-100%) | 5 (5=80-100%) | 5 (5=80-100%) | 4 (4=60-79%) | 5 (5=80-100%) | 5 (5=80-100%) | 5 (5=80-100%)
Cc1nn(C)c(=O)c(-c2c(F)ccc(Cl)c2OCc2cccnc2)c1O [Compound 1.23] | 4 (4=60-79%) | 5 (5=80-100%) | 2 (2=20-39%) | 5 (5=80-100%) | 2 (2=20-39%) | 5 (5=80-100%) | 4 (4=60-79%) | 5 (5=80-100%) | 2 (2=20-39%) | 5 (5=80-100%) | 4 (4=60-79%) | 5 (5=80-100%)
Cc1nn(C)c(=O)c(-c2c(Cl)ccc(Cl)c2OCc2ccncc2)c1O [Compound 1.03] | 4 (4=60-79%) | 5 (5=80-100%) | 1 (1=0-19%) | 5 (5=80-100%) | 1 (1=0-19%) | 4 (4=60-79%) | 1 (1=0-19%) | 4 (4=60-79%) | 2 (2=20-39%) | 5 (5=80-100%) | 4 (4=60-79%) | 4 (4=60-79%)
